Active and inactive are the calls of the source. The calls are words filed in the database; no cut-off is given here.
What was measured:
Mus musculus [1] = test: Anti-inflammatory activity in MOG (35 to 55 residues)/pertussis toxin-induced experimental autoimmune encephalomyelitis C57BL/6 mouse model assessed as T cell activation by measuring decrease in CD44hi CD62Llo T cells in spleen at 75 to 150 mg/kg, po administered once daily starting from day 7 to day 20 by flow cytometric analysis; format: functional; parameters: scale not given: the % may be the effect or the level left; details: dose 75-150 mg/kg, time 14 day
[2] = Inhibition of M1 macrophage polarization in C57BL/6 mouse BMDM cells assessed as fold change in IL-1beta gene level at 1 uM incubated for 24 hrs by qRT-PCR analysis (reference value: 1); format: functional
[3] = Inhibition of M1 macrophage polarization in C57BL/6 mouse BMDM cells assessed as fold change in IL-6 gene level at 1 uM incubated for 24 hrs by qRT-PCR analysis (reference value: 1); format: functional
Mus musculus [4] = test: Anti-inflammatory activity in MOG (35 to 55 residues)/pertussis toxin-induced experimental autoimmune encephalomyelitis C57BL/6 mouse model assessed as T cell activation by measuring increase in CD44lo CD62Lhi naive T cells in DLN at 75 to 150 mg/kg, po administered once daily starting from day 7 to day 20 by flow cytometric analysis; format: functional, organism-based; details: dose 75-150 mg/kg, time 14.0 day
[5] = Tmax in ICR mouse at 50 mg/kg, po measured upto 24 hrs by LC/MS analysis; format: ADME, organism-based; details: in vivo
Mus musculus [6] = test: Anti-inflammatory activity in MOG (35 to 55 residues)/pertussis toxin-induced experimental autoimmune encephalomyelitis C57BL/6 mouse model assessed as T cell activation by measuring increase in CD44lo CD62Lhi naive T cells in spleen at 75 to 150 mg/kg, po administered once daily starting from day 7 to day 20 by flow cytometric analysis; format: functional, organism-based; details: dose 75-150 mg/kg, time 14.0 day
Mus musculus [7] = test: Anti-inflammatory activity in MOG (35 to 55 residues)/pertussis toxin-induced experimental autoimmune encephalomyelitis C57BL/6 mouse model assessed as inhibition of CD4+ T cell differentiation by measuring reduction in Th17 (Il-4+) cells in spleen administered orally once daily starting from day 7 to day 20 by flow cytometric analysis; format: functional, organism-based; details: dose 75-150 mg/kg, route po, time 14.0 day
Mus musculus [8] = test: Anti-inflammatory activity in MOG (35 to 55 residues)/pertussis toxin-induced experimental autoimmune encephalomyelitis C57BL/6 mouse model assessed as decrease in disease progression by measuring clinical score at 75 to 150 mg/kg, po administered once daily starting from day 7 to day 20; format: functional, organism-based; details: dose 75-150 mg/kg, time 14.0 day
[9] = AUC(0 to infinity) in ICR mouse at 50 mg/kg, po measured upto 24 hrs by LC/MS analysis; format: ADME, organism-based; parameters: dose 50 mg/kg, time < 24 hrs, route po; details: in vivo
[10] = target: RAC-beta serine/threonine-protein kinase (Homo sapiens, UniProt P31751); test: Inhibition of AKT2 (unknown origin); format: binding
Chain of RAC-beta serine/threonine-protein kinase (P31751 whole entry, the tested form may be a part): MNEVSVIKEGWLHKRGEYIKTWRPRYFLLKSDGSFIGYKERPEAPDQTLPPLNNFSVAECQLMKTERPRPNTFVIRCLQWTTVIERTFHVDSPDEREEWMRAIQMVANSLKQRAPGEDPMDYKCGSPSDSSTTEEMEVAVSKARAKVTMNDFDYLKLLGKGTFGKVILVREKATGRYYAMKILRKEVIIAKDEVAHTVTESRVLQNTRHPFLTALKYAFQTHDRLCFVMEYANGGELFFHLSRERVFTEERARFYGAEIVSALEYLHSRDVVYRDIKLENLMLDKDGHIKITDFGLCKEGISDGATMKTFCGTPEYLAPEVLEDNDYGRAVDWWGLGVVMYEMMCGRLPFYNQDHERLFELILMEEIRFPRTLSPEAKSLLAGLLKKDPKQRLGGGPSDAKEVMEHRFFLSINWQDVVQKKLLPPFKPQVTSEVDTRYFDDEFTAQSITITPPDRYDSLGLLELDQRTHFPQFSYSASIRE

Mus musculus [11] = test: Anti-inflammatory activity in MOG (35 to 55 residues)/pertussis toxin-induced experimental autoimmune encephalomyelitis C57BL/6 mouse model assessed as inhibition of M1 macrophage polarization by measuring decrease in Mcp1 mRNA expression in CNS administered orally once daily starting from day 7 to day 20 by qRT-PCR analysis; format: functional, organism-based; details: dose 75-150 mg/kg, route po, time 14.0 day
Mus musculus [12] = test: Anti-inflammatory activity in MOG (35 to 55 residues)/pertussis toxin-induced experimental autoimmune encephalomyelitis C57BL/6 mouse model assessed as inhibition of M1 macrophage polarization by measuring decrease in IL-6 mRNA expression in CNS at 75 to 150 mg/kg, po administered once daily starting from day 7 to day 20 by qRT-PCR analysis; format: functional, organism-based; details: dose 75-150 mg/kg, time 14.0 day
Mus musculus [13] = test: Anti-inflammatory activity in MOG (35 to 55 residues)/pertussis toxin-induced experimental autoimmune encephalomyelitis C57BL/6 mouse model assessed as inhibition of M1 macrophage polarization by measuring decrease in Inos mRNA expression in CNS administered orally once daily starting from day 7 to day 20 by qRT-PCR analysis; format: functional, organism-based; details: dose 75-150 mg/kg, route po, time 14.0 day
Mus musculus [14] = test: Anti-inflammatory activity in MOG (35 to 55 residues)/pertussis toxin-induced experimental autoimmune encephalomyelitis C57BL/6 mouse model assessed as inhibition of CD4+ T cell differentiation by measuring reduction in Th17 (Il-4+) cells in DLN administered orally once daily starting from day 7 to day 20 by flow cytometric analysis; format: functional, organism-based; details: dose 75-150 mg/kg, route po, time 14.0 day
Mus musculus [15] = test: Anti-inflammatory activity in MOG (35 to 55 residues)/pertussis toxin-induced experimental autoimmune encephalomyelitis C57BL/6 mouse model assessed as M2 macrophage polarization by measuring increase in Arg1 mRNA expression in CNS at 75 to 150 mg/kg, po administered once daily starting from day 7 to day 20 by qRT-PCR analysis; format: functional, organism-based; details: dose 75-150 mg/kg, time 14.0 day
Mus musculus [16] = test: Anti-inflammatory activity in MOG (35 to 55 residues)/pertussis toxin-induced experimental autoimmune encephalomyelitis C57BL/6 mouse model assessed as increase in F4/80+ CD206+ M2 macrophage in DLN at 75 to 150 mg/kg, po administered once daily starting from day 7 to day 20 by flow cytometric analysis; format: functional; details: dose 75-150 mg/kg, time 14 day
Mus musculus [17] = test: Anti-inflammatory activity in MOG (35 to 55 residues)/pertussis toxin-induced experimental autoimmune encephalomyelitis C57BL/6 mouse model assessed as M2 macrophage polarization by measuring increase in Mrc1 mRNA expression in CNS at 75 to 150 mg/kg, po administered once daily starting from day 7 to day 20 by qRT-PCR analysis; format: functional, organism-based; details: dose 75-150 mg/kg, time 14.0 day
[18] = target: RAC-alpha serine/threonine-protein kinase (Homo sapiens, UniProt P31749); test: Inhibition of AKT1 (unknown origin); format: binding
Chain of RAC-alpha serine/threonine-protein kinase (Homo sapiens, UniProt P31749) (P31749 whole entry): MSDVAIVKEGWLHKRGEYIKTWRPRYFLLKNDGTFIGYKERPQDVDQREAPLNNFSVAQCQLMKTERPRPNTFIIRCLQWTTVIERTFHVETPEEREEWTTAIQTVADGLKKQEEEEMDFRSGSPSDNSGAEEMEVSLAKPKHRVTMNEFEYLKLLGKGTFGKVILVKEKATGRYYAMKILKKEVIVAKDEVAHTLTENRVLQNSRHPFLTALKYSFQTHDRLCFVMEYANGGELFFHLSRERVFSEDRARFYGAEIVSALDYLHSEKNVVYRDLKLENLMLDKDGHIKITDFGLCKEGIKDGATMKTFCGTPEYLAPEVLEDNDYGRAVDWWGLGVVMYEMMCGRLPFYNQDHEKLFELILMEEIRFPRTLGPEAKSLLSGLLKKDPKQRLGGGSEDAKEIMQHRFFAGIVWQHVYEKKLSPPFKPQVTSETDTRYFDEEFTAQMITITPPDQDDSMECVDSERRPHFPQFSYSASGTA

[19] = Cmax in ICR mouse at 50 mg/kg, po measured upto 24 hrs by LC/MS analysis; format: ADME, organism-based; parameters: dose 50 mg/kg, time < 24 hrs, route po; details: in vivo
Mus musculus [20] = test: Anti-inflammatory activity in MOG (35 to 55 residues)/pertussis toxin-induced experimental autoimmune encephalomyelitis C57BL/6 mouse model assessed as decrease in disease progression by measuring cumulative score at 75 to 150 mg/kg, po administered once daily starting from day 7 to day 20; format: functional, organism-based; details: dose 75-150 mg/kg, time 14.0 day
Mus musculus [21] = test: Anti-inflammatory activity in MOG (35 to 55 residues)/pertussis toxin-induced experimental autoimmune encephalomyelitis C57BL/6 mouse model assessed as inhibition of CD4+ T cell differentiation by measuring reduction in Th1 (IFN-gamma+) cells in DLN administered orally once daily starting from day 7 to day 20 by flow cytometric analysis; format: functional, organism-based; details: dose 75-150 mg/kg, route po, time 14.0 day
[22] = Induction of M2 macrophage polarization in C57BL/6 mouse BMDM cells assessed as fold increase in Arg1 gene level at 1 uM incubated for 24 hrs by qRT-PCR analysis; format: functional
[23] = target: RAC-alpha serine/threonine-protein kinase (Mus musculus, UniProt P31750); test: Inhibition of LPS-induced Akt phosphorylation at Ser473 in C57BL/6 mouse BMDM cells at 50 to 500 nM incubated for 24 hrs by Western blot analysis; format: cell-based; details: 0.5 µM, dose 50-500 nM
Chain of RAC-alpha serine/threonine-protein kinase (Mus musculus, UniProt P31750) (P31750 whole entry, the tested form may be a part): as the sequence (P31749 whole entry) above, with S2N, A50S, T100A, K112R, E117T, K389T, G410N, H415D counted along it

Mus musculus [24] = test: Anti-inflammatory activity in MOG (35 to 55 residues)/pertussis toxin-induced experimental autoimmune encephalomyelitis C57BL/6 mouse model assessed as decrease in infiltrated inflammatory cells administered orally once daily starting from day 7 to day 20 by H&E staining based analysis; format: functional, organism-based; details: dose 75-150 mg/kg, route po, time 14.0 day
[25] = Induction of M2 macrophage polarization in C57BL/6 mouse BMDM cells assessed as fold increase in Ym1 gene level at 1 uM incubated for 24 hrs by qRT-PCR analysis; format: functional

## Cl.Cn1ncc(Br)c1-c1ccc(C(=O)N[C@@H]2CNCC[C@H]2c2ccc(F)c(F)c2)cc1C1CC1
Mus musculus [1]
  Activity: 19%
[2]
  fold change (FC): 4.15
[3]
  fold change (FC): 2.22
Mus musculus [4]
  Activity: Active
[5]
  Tmax: 4 h
Mus musculus [6]
  Activity: Active
Mus musculus [7]
  Activity: Dose-Dependent Effect
Mus musculus [8]
  Activity: Active
[9]
  AUC(0-inf): 27.9 µg·h/mL
[10]
  IC50: > 1 µM
Mus musculus [11]
  Activity: Dose-Dependent Effect
Mus musculus [12]
  Activity: Active
Mus musculus [13]
  Activity: Dose-Dependent Effect
Mus musculus [14]
  Activity: Dose-Dependent Effect
Mus musculus [15]
  Activity: Active
Mus musculus [16]
  Activity: 10.6%
Mus musculus [17]
  Activity: Active
[18]
  IC50: 0.434 µM
[19]
  Cmax: 1.99 µg/mL
Mus musculus [20]
  Activity: Active
Mus musculus [21]
  Activity: Dose-Dependent Effect
[22]
  fold change (FC): 10.28
[23]
  inhibition (INH): Not Active
Mus musculus [24]
  Activity: Dose-Dependent Effect
[25]
  fold change (FC): 14.31

Reference: ChEMBL document CHEMBL5352415, “Discovery of new macrophage M2 polarization modulators as multiple sclerosis treatment agents that enable the inflammation microenvironment remodeling” (Eur J Med Chem, 2022)
